In US20020136789A1, “Use of tagetes minuta oil and its components as antiviral agents” (COUNCIL OF SCIENTIFIC & INDUSTRIAL RESEARCH, priority 2001, published 2002):
Values joined by “and” are separate entries in the source; they are usually repeats but may differ in a detail not shown here. Identical values can stand only once.

Key:
8 bacterial strains = details: cited from earlier work
mosquito = details: in vivo; cited from earlier work
HIV replication = details: cited from earlier work
[1] = tested on: Carnation ring spot virus (CaRSV); assay: Local lesion assay of CaRSV on Chenopodium amaranticolor leaves (test half leaf vs virus+buffer control); type: in vivo; details: for Percentage Inhibition of CaRSV, IInd Treatment: compounds after extraction, summary of three experiments; for Percentage Inhibition of CaRSV, IIIrd Treatment: compounds after storing at 0° C.; for No. of Lesions on Test / % inhibition / Average No. of lesions Test / Test (number of lesions): CaRSV; for No. of Lesions on Test: 24 hrs room temperature, ten leaves; for No. of Lesions on Test / % inhibition / Average No. of lesions Test: Chenopodium amaranticolor; for Test (number of lesions): compound stored at 0° C. for two months; for antiviral activity against CaRSV (in words): components tested individually in pure form
Protocol: (§1) Each concentration of whole Tagetes minuta oil and its pure isolated components were applied on 10 leaves so that the average could be taken.
(§2) The whole oil of Tagetes minuta and its pure components i.e. ocimene and dihydrotagetone were tested individually with virus cultures of CaVMV and CaRSV and applied on the leaves of Chenopodium amaranticolor. In all the experiments each concentration of three testing mixtures were applied on ten leaves of Chenopodium amaranticolor palnt. The isolated compounds were stored at 0° C. for two months and the experiments were repeated.
(§3) The Cultures of Carnation ring spot and Carnation vein motto viruses were maintained both in natural host and on Phaseolus vulgaris and Chenopodium quinoa which are maintenance and propagation host of these viruses respectively. For virus culture, leaves of fifteen days old individual virus inoculated host plants with CaVMV and CaRSV were ground in phosphate buffer pH 7.5 and the viruses were extracted separately in crude sap.
(§4) Activity of the above volatile oils were tested against Carnation ring spot and Carnation vein mottle virus in different dilutions. Most of the tests were performed by using 0.5% and 2.5% concentration of essential oils as the phytotoxic effect appeared on Chenopodium amaranticolor leaves, at higher concentrations. The 0.5% and 2.5% concentration of essential oils were mixed with crude sap containing each virus and incubated at room temperature for 24 hrs. After incubation, sap containing virus were inoculated individually on bioassay host Chenopodium amaranticolor after adding Cellite (as abrasive) to monitor the inhibitory effect. Following results were obtained in different concentrations.

[2] = tested on: Carnation vein mottle virus (CaVMV); assay: Local lesion assay of CaVMV on Chenopodium amaranticolor leaves (test half leaf vs virus+buffer control); type: in vivo; details: for Percentage Inhibition of CaVMV, IInd Treatment: compounds after extraction, summary of three experiments; for Percentage Inhibition of CaVMV, IIIrd Treatment: compounds after storing at 0° C.; for No. of Lesions on Test / % inhibition / Average No. of lesions Test / Test (number of lesions): CaVMV; for No. of Lesions on Test: 24 hrs room temperature, ten leaves; for No. of Lesions on Test / % inhibition / Average No. of lesions Test: Chenopodium amaranticolor; for Test (number of lesions): compound stored at 0° C. for two months; for antiviral activity against CaVMV (in words): components tested individually in pure form
Protocol: as §1, §2, §3, §4

HSV-1 = details: concentrations 12-47 μg/ml; cited from earlier work
Cox B1 = details: concentrations 12-47 μg/ml; cited from earlier work
BGMV = details: in vivo; cited from earlier work
PVX [3] = details: cited from earlier work
CaMV = details: in vivo; cited from earlier work
PNRSV = details: in vivo; cited from earlier work
SSV = details: in vivo; cited from earlier work
PVX [4] = details: susceptible viruses such as PVX; cited from earlier work
TMV = details: except during very early replicative steps following inoculation; cited from earlier work
[5] = 0.5% concentration mixed with crude sap
[6] = 2.5% concentration mixed with crude sap

In the case of CC12CCC(CC1)C(C)(C)O2 [1,8 cineole], the “activity against 8 bacterial strains” value (8 bacterial strains) is given as “exhibited activity”.

For C=C/C(C)=C/C(=O)C=C(C)C [5-E Ocimenone], the mosquito larvaecideal activity (mosquito) is listed as “mosquito larvaecideal activity”.

In the case of CC12CCC(CC1=O)C2(C)C (stereo not shown) [Camphor, camphor], the “activity against 8 bacterial strains” value (8 bacterial strains) is listed as “almost inactive”.

For CC1=CC[C@@H]([C@@H](C)[C@H]2CC[C@@]3(C)C4=C(C=C(CCC(=O)O)C(=C(C)C)C=C4)CC[C@]23C)OC1=O [Compound 3], the therapeutic index (HIV replication; HIV replication) is given as “greater than 71.4” and the “EC50, inhibition of HIV replication” value (HIV replication) is given as 1400 µg/mL.

For C=CC(C)CC(=O)CC(C)C (stereo not shown) [Dihydrotagetone, dihydrotagetone], the “Percentage Inhibition of CaRSV, IInd Treatment” value ([1]; 0.5%) was 71.6%, the “Percentage Inhibition of CaRSV, IIIrd Treatment” value ([1]; 0.5%) was 100% and the “Percentage Inhibition of CaRSV, IInd Treatment” value ([1]; 2.5%) was 81.06%. The “Percentage Inhibition of CaRSV, IIIrd Treatment” value ([1]; 2.5%) was 100%, the “No. of Lesions on Test” value [1, 5] was 32 and 41 and 42 and the “% inhibition” value ([1]; 0.5% concentration) was 72.1% and 70.9% and 72.0%. For the same molecule, the “Average No. of lesions Test” value ([1]; 0.5% concentration) was 4.22 and 4.44 and 5.00, the “Test (number of lesions)” value ([1]; 0.5% concentration) was 0 and the “% inhibition” value ([1]; 2.5% concentration) was 81.8% and 82.0% and 79.4%. The “Average No. of lesions Test” value ([1]; 2.5% concentration) was 2.8 and 2.5 and 4.0, the “Test (number of lesions)” value ([1]; 2.5% concentration) was 0 and the “antiviral activity against CaRSV (in words)” value [1] was “enhanced antiviral activity”. For the same molecule, the “Percentage Inhibition of CaVMV, IInd Treatment” value ([2]; 0.5%) was 72.2%, the “Percentage Inhibition of CaVMV, IIIrd Treatment” value ([2]; 0.5%) was 100% and the “Percentage Inhibition of CaVMV, IInd Treatment” value ([2]; 2.5%) was 83.6%. For the same molecule, the “Percentage Inhibition of CaVMV, IIIrd Treatment” value ([2]; 2.5%) was 100%, the “No. of Lesions on Test” value [2, 5] was 38 and 40 and 45 and the “% inhibition” value ([2]; 0.5% concentration) was 73.04% and 73.3% and 70.3%. The “Average No. of lesions Test” value ([2]; 0.5% concentration) was 4.22 and 4.44 and 5.00, the “Test (number of lesions)” value ([2]; 0.5% concentration) was 0 and the “No. of Lesions on Test” value [2, 6] was 31 and 25 and 38. For the same molecule, the “% inhibition” value ([2]; 2.5% concentration) was 83.0% and 87.0% and 81.0%, the “Average No. of lesions Test” value ([2]; 2.5% concentration) was 3.44 and 2.77 and 4.20 and the “Test (number of lesions)” value ([2]; 2.5% concentration) was 0. For the same molecule, the “antiviral activity against CaVMV (in words)” value [2] was “enhanced antiviral activity”.

With C=C/C(C)=C\CC=C(C)C [Ocimene, Z-β-ocimene] the “Percentage Inhibition of CaRSV, IInd Treatment” value ([1]; 0.5%) was 67.9%, the “Percentage Inhibition of CaRSV, IIIrd Treatment” value ([1]; 0.5%) was 100% and the “Percentage Inhibition of CaRSV, IInd Treatment” value ([1]; 2.5%) was 80.9%. For the same molecule, the “Percentage Inhibition of CaRSV, IIIrd Treatment” value ([1]; 2.5%) was 100%, the “No. of Lesions on Test” value [1, 5] was 60 and 65 and 58 and the “% inhibition” value ([1]; 0.5% concentration) was 69.6% and 66.6% and 67.7%. The “Average No. of lesions Test” value ([1]; 0.5% concentration) was 6.0 and 6.5 and 5.8, the “Test (number of lesions)” value ([1]; 0.5% concentration) was 0 and the “No. of Lesions on Test” value [1, 6] was 40 and 25 and 35. The “% inhibition” value ([1]; 2.5% concentration) was 80.4% and 81.4% and 81.0%, the “Average No. of lesions Test” value ([1]; 2.5% concentration) was 4.0 and 2.5 and 3.5 and the “Test (number of lesions)” value ([1]; 2.5% concentration) was 0. The “antiviral activity against CaRSV (in words)” value [1] was “enhanced antiviral activity”, the “Percentage Inhibition of CaVMV, IInd Treatment” value ([2]; 0.5%) was 70.2% and the “Percentage Inhibition of CaVMV, IIIrd Treatment” value ([2]; 0.5%) was 100%. The “Percentage Inhibition of CaVMV, IInd Treatment” value ([2]; 2.5%) was 84.3%, the “Percentage Inhibition of CaVMV, IIIrd Treatment” value ([2]; 2.5%) was 100% and the “No. of Lesions on Test” value [2, 5] was 66 and 70 and 65. For the same molecule, the “% inhibition” value ([2]; 0.5% concentration) was 71.05% and 63.50% and 72.1%, the “Average No. of lesions Test” value ([2]; 0.5% concentration) was 6.6 and 7.0 and 6.5 and the “Test (number of lesions)” value ([2]; 0.5% concentration) was 0. For the same molecule, the “No. of Lesions on Test” value [2, 6] was 43 and 40 and 38, the “% inhibition” value ([2]; 2.5% concentration) was 83.58% and 84.00% and 85.66% and the “Average No. of lesions Test” value ([2]; 2.5% concentration) was 4.3 and 4.0 and 3.8. The “Test (number of lesions)” value ([2]; 2.5% concentration) was 0 and the “antiviral activity against CaVMV (in words)” value [2] was “enhanced antiviral activity”.

In the case of O=c1c(O)c(-c2ccccc2)oc2cc(O)cc(O)c12 [galangin], the “antiviral activity against HSV-1” value (HSV-1) is listed as “significant antiviral activity” and the “antiviral activity against Cox B1” value (Cox B1) is listed as “significant antiviral activity”.

For NC(=O)c1ncn([C@@H]2O[C@H](CO)[C@@H](O)[C@H]2O)n1 [ribavirin, Ribavirin], the “effectiveness against BGMV” value (BGMV) is listed as “relatively or completely ineffective”, the “developing shoots into which virus spread was prevented” value (PVX [3]; 10 ppm, differentiating calli) is listed as 90% and the “inhibition of PVX in callus culture” value (PVX [3]; 100 ppm in the medium) is listed as “not inhibited”. For the same molecule, the “effectiveness against CaMV” value (CaMV) was “relatively or completely ineffective”, the “susceptibility of PNRSV” value (PNRSV) was “resistant” and the “effectiveness against SSV” value (SSV) was “relatively or completely ineffective”. For the same molecule, the “concentration needed to inhibit local lesion development and to prevent infection” value (PVX [4]) was “Approximately 1000 ppm” and the “susceptibility of TMV” value (TMV) was “much less susceptible than other viruses”.

For CC(C)[C@]12CC(=O)[C@H](C)[C@H]1C2 [thujone], the “activity against 8 bacterial strains” value (8 bacterial strains) is given as “exhibited activity”.
